Here are results for 10 compounds from patent US11673886B2, “5-membered and bicyclic heterocyclic amides as inhibitors of ROCK” (BRISTOL-MYERS SQUIBB COMPANY, priority 2017, dated 2023).

For test [1], the target named is ROCK2 (Homo sapiens (Human), UniProt O75116). The test is described as follows: ROCK2 assay (kinase inhibition, FITC peptide substrate, LABCHIP 3000 Reader). It is filed as biochemical. As to conditions: 5 μM ATP, 1.5 μM peptide substrate.
Test [2] deals with ROCK. As to conditions: long term treatment; cited from earlier work.
Test [3] has as its system ROCK. As to conditions: rat, in vivo; cited from earlier work.

Sequence of ROCK2 (O75116 whole entry, species assumed): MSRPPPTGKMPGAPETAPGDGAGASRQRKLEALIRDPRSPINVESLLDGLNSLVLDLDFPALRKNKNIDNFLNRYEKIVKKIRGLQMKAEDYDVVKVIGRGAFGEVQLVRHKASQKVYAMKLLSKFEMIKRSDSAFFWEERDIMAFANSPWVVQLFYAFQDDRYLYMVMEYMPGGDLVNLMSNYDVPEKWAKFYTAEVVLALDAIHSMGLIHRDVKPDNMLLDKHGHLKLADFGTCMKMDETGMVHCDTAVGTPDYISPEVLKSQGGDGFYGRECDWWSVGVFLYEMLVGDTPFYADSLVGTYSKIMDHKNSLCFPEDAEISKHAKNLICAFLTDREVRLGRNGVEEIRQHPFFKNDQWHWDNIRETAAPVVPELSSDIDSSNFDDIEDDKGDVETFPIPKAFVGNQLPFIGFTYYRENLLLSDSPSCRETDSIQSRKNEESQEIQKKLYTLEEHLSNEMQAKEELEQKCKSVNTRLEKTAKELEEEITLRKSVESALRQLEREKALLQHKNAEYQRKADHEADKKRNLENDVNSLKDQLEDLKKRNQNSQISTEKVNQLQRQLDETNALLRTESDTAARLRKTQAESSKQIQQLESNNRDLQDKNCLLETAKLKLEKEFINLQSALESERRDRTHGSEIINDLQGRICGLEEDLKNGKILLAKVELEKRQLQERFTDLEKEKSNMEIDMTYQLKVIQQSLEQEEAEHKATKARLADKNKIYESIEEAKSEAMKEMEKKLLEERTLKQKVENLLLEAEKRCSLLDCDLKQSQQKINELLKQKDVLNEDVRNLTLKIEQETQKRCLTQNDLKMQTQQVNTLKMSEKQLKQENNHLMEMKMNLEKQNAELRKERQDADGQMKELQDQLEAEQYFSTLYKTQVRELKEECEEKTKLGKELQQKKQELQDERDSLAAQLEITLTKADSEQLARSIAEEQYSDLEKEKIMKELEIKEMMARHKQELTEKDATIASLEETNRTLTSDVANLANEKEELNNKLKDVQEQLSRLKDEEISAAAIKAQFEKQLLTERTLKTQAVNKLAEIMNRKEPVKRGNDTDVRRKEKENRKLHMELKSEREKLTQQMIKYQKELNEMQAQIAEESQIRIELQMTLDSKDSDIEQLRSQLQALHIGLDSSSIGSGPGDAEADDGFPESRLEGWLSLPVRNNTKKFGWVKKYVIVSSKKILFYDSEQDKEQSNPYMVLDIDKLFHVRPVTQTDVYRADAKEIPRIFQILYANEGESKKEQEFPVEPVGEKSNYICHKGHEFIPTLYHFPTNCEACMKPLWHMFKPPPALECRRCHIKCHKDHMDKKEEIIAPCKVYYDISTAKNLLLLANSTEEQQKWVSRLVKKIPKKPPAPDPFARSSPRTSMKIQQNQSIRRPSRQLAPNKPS

Broadly, the IC50 is the midpoint of a concentration-inhibition curve. The low end stands for inhibition by little substance, the high end for a need for much substance. For `Cc1ccn2nc(O[C@H]3CC4(C[C@H](NC(=O)c5nn(C(F)F)c6cc(OCC(C)(C)O)ccc56)C4)C3)c(C(N)=O)c2c1` (stereo partly drawn) [Example 132, 1-(difluoromethyl)-6-(2-hydroxy-2-methylpropoxy)-N-[(4s)-6-({3-carbamoyl-5-methylpyrazolo[1,5-a]pyridin-2-yl}oxy)spiro[3.3]heptan-2-yl]-1H-indazole-3-carboxamide], in test [1], the IC50 is 223 nM.

`NC(=O)c1sc(C2CC2)nc1O[C@H]1C[C@@]2(C[C@H](NC(=O)c3cnn4cc(OCC(F)(F)F)ccc34)C2)C1` (stereo partly drawn) [Example 62, 2-cyclopropyl-4-{[(aR)-6-[6-(2,2,2-trifluoroethoxy)pyra-zolo[1,5-a]pyridine-3-amido]spiro[3.3]hep-tan-2-yl]oxy}-1,3-thiazole-5-carboxamide] came in with a half-inhibitory concentration (IC50) in test [1] of 11.6 nM. Compared with the last compound, the IC50 is about 19-fold lower.

“2-cyclopropyl-4- {[(aR)-6-{4-[(1R)- 1-hydroxyethyl]- 2,5- dioxoimidazolidin- 1- yl}spiro[3.3]heptan- 2-yl]oxy}-1,3- thiazole-5- carboxamide [Example 109]”: in test [1], the IC50 came to 330 nM.

As to `Cc1sc2cc(C(N)=O)c(O[C@H]3C[C@@]4(C[C@H](NC(=O)c5nnc(NCC(C)C)s5)C4)C3)nc2c1C` (stereo partly drawn) [Example 162, 5-[(2-methylpropyl)amino]-N-[(4s)-6-({6-carbamoyl-2,3-dimethylthieno[3,2-b]pyridin-5-yl}oxy)spiro[3.3]heptan-2-yl]-1,3,4-thiadiazole-2-carboxamide], the IC50 in test [1] worked out at 162 nM.

The compound `[H][C@]1(Oc2c(C(N)=O)sc3ccccc23)C[C@]2(C[C@@H](NC(=O)c3cnn4c(C5CC5)c(OCC(C)(C)O)ccc34)C2)C1` (stereo partly drawn) [Example 2, N-((aR)-6-((2-Carbamoylbenzo[b]thiophen-3-yl)oxy)spiro[3.3]heptan-2-yl)-7-cyclopropyl-6-(2-hydroxy-2-methylpropoxy)pyrazolo[1,5-a]pyridine-3-carboxamide] registered an IC50 in test [1] of 20 nM.

Turning to `NC(=O)c1c(O[C@H]2CC3(C[C@H](NC(=O)c4cnn5cc(OCC(F)F)ccc45)C3)C2)nn2ccccc12` (stereo partly drawn) [Example 122, 2-{[(4s)-6-[6-(2,2-difluoroethoxy)pyrazolo[1,5-a]pyridine-3-amido]spiro[3.3]heptan-2-yl]oxy}pyrazolo[1,5-a]pyridine-3-carboxamide], in test [1], the IC50 amounted to 117 nM.

Regarding `CCn1cc(C(N)=O)c(O[C@H]2CC3(C[C@H](NC(=O)c4cnn5c(C6CC6)c(OCC(C)(C)O)ccc45)C3)C2)n1` (stereo partly drawn) [Example 19, 3-({(aR)-6-[7-cyclopropyl-6-(2-hydroxy-2-methylpropoxy)pyra-zolo[1,5-a]pyridine-3-amido]spiro[3.3]hep-tan-2-yl}oxy)-1-ethyl-1H-pyrazole-4-carboxamide], the IC50 in test [1] worked out at 10.5 nM.

In test [1], `CC(C)(O)COc1ccc2c(C(=O)N[C@H]3C[C@]4(C3)C[C@H](Oc3c(C(N)=O)cnn3CCCN)C4)cnn2c1C1CC1` (stereo partly drawn) [Example 28, 1-(3-aminopropyl)-5-({(aR)-6-[7-cyclopropyl-6-(2-hydroxy-2-methylpropoxy)pyra-zolo[1,5-a]pyridine-3-amido]spiro[3.3]hep-tan-2-yl}oxy)-1H-pyrazole-4-carboxamide] displayed a concentration for half-maximal inhibition (IC50) of 551 nM.

Consider `O=S(=O)(c1cccc2cnccc12)N1CCCNCC1` [fasudil], for which, in test [2], the coronary constrictive remodeling entry is recorded as “promote a regression of coronary constrictive remodeling” and the coronary stenosis result is “progressively reduce coronary stenosis”. In addition, in test [3], the “infarct size and neurologic deficit” value was “reduce both the infarct size and neurologic deficit”.

`COCCn1cc(C(N)=O)c(O[C@H]2CC3(C[C@H](NC(=O)c4cnn5c(C6CC6)c(OCC(C)(C)O)ccc45)C3)C2)n1` (stereo partly drawn) [Example 23, 3-({(aR)-6-[7-cyclopropyl-6-(2-hydroxy-2-methylpropoxy)pyra-zolo[1,5-a]pyridine-3-amido]spiro[3.3]hep-tan-2-yl}oxy)-1-(2-methoxyethyl)-1H-pyrazole-4-carboxamide] registered an IC50 in test [1] of 77.7 nM.
